The record followed here is ChEMBL document CHEMBL1147148, “Cytotoxic withanolides from Tubocapsicum anomalum” (J Nat Prod, 2007).

One assay has as its system HepG2. Description: Cytotoxicity against human HepG2 cells by MTT method. Type of assay: cell-based. For orientation: Tetrazolium dyes change colour on reduction, which living cells bring about.
A short description of assay [1]: Cytotoxicity against human Hep3B cells by MTT method. Type of assay: cell-based, Hep 3B2.
The subject of a further assay is MCF7. Description: Cytotoxicity against human MCF7 cells by MTT method. Type of assay: cell-based.
A further assay concerns A549. Description: Cytotoxicity against human A549 cells by MTT method. Format: cell-based.
A further assay deals with MDA-MB-231. Description: Cytotoxicity against human MDA-MB-231 cells by MTT method. Type of assay: cell-based.
A further assay deals with MRC5. In words: Cytotoxicity against human MRC5 cells by MTT method. Format: cell-based.

Converted amounts (≈) assume the structure as drawn.

As for `CC1=C(C)C(=O)O[C@@H]([C@@H](C)[C@@]2(O)CC[C@H]3[C@@H]4C[C@H]5O[C@]56[C@@H](O)C=CC(=O)[C@]6(C)[C@H]4CC[C@@]32C)C1`, the IC50 in the assay with HepG2 was 0.64 µg/mL (≈ 1.36 µM); in assay [1], 0.8 µg/mL (≈ 1.7 µM); with MCF7 it was 1.98 µg/mL (≈ 4.21 µM); with A549 it was 0.88 µg/mL (≈ 1.87 µM); in the assay on MDA-MB-231 it was 0.99 µg/mL (≈ 2.1 µM); in the assay on MRC5, 0.81 µg/mL (≈ 1.72 µM).
In the case of `CC1=C(C)C(=O)O[C@@H]([C@](C)(O)[C@@]2(O)CC[C@H]3[C@@H]4C[C@H]5O[C@]56[C@@H](O)C=CC(=O)[C@]6(C)[C@H]4CC[C@@]32C)C1`, the IC50 in the assay on HepG2 is 0.49 µg/mL (≈ 1.01 µM); in assay [1] it was 0.85 µg/mL (≈ 1.75 µM); in the assay on MCF7, 1.45 µg/mL (≈ 2.98 µM); in the assay on A549, 0.72 µg/mL (≈ 1.48 µM); in the assay with MDA-MB-231, 0.71 µg/mL (≈ 1.46 µM); with MRC5, 1.89 µg/mL (≈ 3.88 µM).
Regarding `CC1=C(C)C(=O)O[C@@H]([C@@H](C)[C@@]2(O)CC[C@H]3[C@@H]4C[C@H](O)[C@]5(O)[C@@H](O)C=CC(=O)[C@]5(C)[C@H]4CC[C@@]32C)C1`, the IC50 in the assay on HepG2 is above 20 µg/mL; in assay [1], 7.19 µg/mL (≈ 14.7 µM); in the assay on MCF7, above 20 µg/mL; in the assay on A549, 8.01 µg/mL (≈ 16.4 µM); in the assay with MDA-MB-231, 13.5 µg/mL (≈ 27.6 µM).
For `CC1=C(C)C(=O)O[C@@H]([C@](C)(O)[C@@]23O[C@@H]2C[C@H]2[C@@H]4C[C@H]5O[C@]56[C@@H](O)C=CC(=O)[C@]6(C)[C@H]4CC[C@@]23C)C1` [20-HYDROXYTUBOCAPSANOLIDE A], the IC50 with HepG2 worked out at 0.73 µg/mL (≈ 1.51 µM); in assay [1], 0.99 µg/mL (≈ 2.04 µM); in the assay with MCF7 it was 1.77 µg/mL (≈ 3.65 µM); in the assay with A549, 1.42 µg/mL (≈ 2.93 µM); in the assay with MDA-MB-231, 0.99 µg/mL (≈ 2.04 µM); in the assay on MRC5, 1.36 µg/mL (≈ 2.81 µM).
Regarding `CC1=C(C)[C@H](O)[C@H]([C@@H](C)[C@@]23O[C@@H]2C[C@H]2[C@@H]4C[C@H]5O[C@]56[C@@H](O)C=CC(=O)[C@]6(C)[C@H]4CC[C@@]23C)OC1=O` [23-HYDROXYTUBOCAPSANOLIDE A], the IC50 was 0.44 µg/mL (≈ 0.908 µM) with HepG2; 0.49 µg/mL (≈ 1.01 µM) in assay [1]; 2.05 µg/mL (≈ 4.23 µM) with MCF7; 0.79 µg/mL (≈ 1.63 µM) in the assay with A549; 1.19 µg/mL (≈ 2.46 µM) in the assay on MDA-MB-231; 0.9 µg/mL (≈ 1.86 µM) in the assay with MRC5.
Turning to `C[C@@]12CC([C@@]3(O)CC[C@H]4[C@@H]5C[C@H]6O[C@]67[C@@H](O)C=CC(=O)[C@]7(C)[C@H]5CC[C@@]43C)[C@@H](C1)OC(=O)[C@]2(C)O` (stereo partly drawn) [ANOMANOLIDE A], the IC50 in the assay with HepG2 amounted to 3.11 µg/mL (≈ 6.39 µM); in assay [1] it was 3.63 µg/mL (≈ 7.46 µM); with MCF7 it was 2.31 µg/mL (≈ 4.75 µM); in the assay with A549, 1.01 µg/mL (≈ 2.08 µM); in the assay with MDA-MB-231, 1.37 µg/mL (≈ 2.82 µM); in the assay with MRC5 it was 1.91 µg/mL (≈ 3.93 µM).
With `C[C@@]12CC([C@@]3(O)CC[C@H]4[C@@H]5C[C@H](O)[C@]6(O)[C@@H](O)C=CC(=O)[C@]6(C)[C@H]5CC[C@@]43C)[C@@H](C1)OC(=O)[C@]2(C)O` (stereo partly drawn) [ANOMANOLIDE B], the IC50 with HepG2 came to 0.97 µg/mL (≈ 1.92 µM); in assay [1], 3.17 µg/mL (≈ 6.28 µM); with MCF7 it was 4.84 µg/mL (≈ 9.59 µM); in the assay with A549 it was 1.49 µg/mL (≈ 2.95 µM); in the assay on MDA-MB-231, 0.7 µg/mL (≈ 1.39 µM); in the assay on MRC5, 0.2 µg/mL (≈ 0.396 µM).
In the case of `C[C@@]12CC([C@@]3(O)[C@H](O)C[C@H]4[C@@H]5C[C@H]6O[C@]67[C@@H](O)C=CC(=O)[C@]7(C)[C@H]5CC[C@@]43C)[C@@H](C1)OC(=O)[C@]2(C)O` (stereo partly drawn) [ANOMANOLIDE C], the IC50 with HepG2 amounted to 4.41 µg/mL (≈ 8.77 µM); in assay [1], 1.85 µg/mL (≈ 3.68 µM); in the assay on MCF7, 8.01 µg/mL (≈ 15.9 µM); with A549, 2.8 µg/mL (≈ 5.57 µM); in the assay with MDA-MB-231 it was 1.58 µg/mL (≈ 3.14 µM).
Take `C[C@@]12CC([C@@]3(O)[C@H](O)C[C@H]4[C@@H]5C[C@H](Cl)[C@]6(O)[C@@H](O)C=CC(=O)[C@]6(C)[C@H]5CC[C@@]43C)[C@@H](C1)OC(=O)[C@]2(C)O` (stereo partly drawn) [ANOMANOLIDE D]: the IC50 is above 20 µg/mL in the assay with HepG2; 19 µg/mL (≈ 35.3 µM) in assay [1]; above 20 µg/mL in the assay on MCF7; above 20 µg/mL with A549; above 20 µg/mL in the assay on MDA-MB-231.
As for `C[C@@]12CC([C@@]3(O)[C@H](O)C[C@H]4[C@@H]5C[C@H](O)[C@]6(O)CC=CC(=O)[C@]6(C)[C@H]5CC[C@@]43C)[C@@H](C1)OC(=O)[C@]2(C)O` (stereo partly drawn) [ANOMANOLIDE E], the IC50 (with HepG2; in assay [1]; in the assay on MCF7; in the assay with A549; in the assay with MDA-MB-231) was above 20 µg/mL throughout.
As for `C[C@@]12CC([C@@]3(O)[C@H](O)C[C@H]4[C@@H]5CC[C@]6(O)[C@@H](O)C=CC(=O)[C@]6(C)[C@H]5CC[C@@]43C)[C@@H](C1)OC(=O)[C@]2(C)O` (stereo partly drawn) [ANOMANOLIDE F], the IC50 (in the assay with HepG2; in assay [1]; with MCF7; with A549; in the assay with MDA-MB-231) was above 20 µg/mL throughout.
Turning to `COc1cccc2c1C(=O)c1c(O)c3c(c(O)c1C2=O)C[C@@](O)(C(=O)CO)C[C@@H]3O[C@H]1C[C@H](N)[C@H](O)[C@H](C)O1` [DOXORUBICIN], the IC50 in the assay on HepG2 was found to be 0.46 µg/mL (≈ 0.846 µM); in assay [1], 0.45 µg/mL (≈ 0.828 µM); in the assay on A549 it was 0.42 µg/mL (≈ 0.773 µM); in the assay with MDA-MB-231 it was 0.19 µg/mL (≈ 0.35 µM); in the assay with MRC5, 0.77 µg/mL (≈ 1.42 µM).
Take `CC1=C(C)C(=O)O[C@@H]([C@@H](C)[C@@]23O[C@@H]2C[C@H]2[C@@H]4C[C@H]5O[C@]56[C@@H](O)C=CC(=O)[C@]6(C)[C@H]4CC[C@@]23C)C1` [TUBOCAPSANOLIDE A]: the IC50 with HepG2 turned out to be 0.86 µg/mL (≈ 1.84 µM); in assay [1], 0.42 µg/mL (≈ 0.896 µM); in the assay on MCF7, 1.47 µg/mL (≈ 3.14 µM); in the assay with A549 it was 0.47 µg/mL (≈ 1 µM); in the assay on MDA-MB-231 it was 0.22 µg/mL (≈ 0.469 µM); with MRC5, 0.73 µg/mL (≈ 1.56 µM).
As to `CC1=C(C)C(=O)O[C@@H]([C@@H](C)[C@@]2(C)C3=C(C[C@H]2O)[C@@H]2C[C@H](O)[C@]4(O)[C@@H](O)C=CC(=O)[C@]4(C)[C@H]2CC3)C1` [TUBOCAPSENOLIDE F], the half-inhibitory concentration (IC50) with HepG2 is above 20 µg/mL; in assay [1], 15.1 µg/mL (≈ 31 µM); in the assay with MCF7, 14.7 µg/mL (≈ 30.2 µM); in the assay on A549, 6.04 µg/mL (≈ 12.4 µM); with MDA-MB-231, 8.41 µg/mL (≈ 17.3 µM).
As for `CC1=C(C)C(=O)O[C@@H]([C@@H](C)[C@@]2(C)C3=C(C[C@H]2O)[C@@H]2C[C@H](Cl)[C@]4(O)[C@@H](O)C=CC(=O)[C@]4(C)[C@H]2CC3)C1` [TUBOCAPSENOLIDE G], the concentration for half-maximal inhibition (IC50) in the assay with HepG2 is 19.1 µg/mL (≈ 37.9 µM); in assay [1] it was above 20 µg/mL; with MCF7, above 20 µg/mL; in the assay with A549, 19.9 µg/mL (≈ 39.5 µM); in the assay with MDA-MB-231 it was above 20 µg/mL.
Regarding `C[C@]1(O)C[C@H]2OC(=O)[C@]1(C)C[C@H]2[C@@]1(O)[C@H](O)C[C@H]2[C@@H]3C[C@H](Cl)[C@]4(O)[C@@H](O)C=CC(=O)[C@]4(C)[C@H]3CC[C@@]21C` [TUBONOLIDE A], the concentration for half-maximal inhibition (IC50) was 5.09 µg/mL (≈ 9.44 µM) in the assay on HepG2; 6.54 µg/mL (≈ 12.1 µM) in assay [1]; 12 µg/mL (≈ 22.3 µM) in the assay on MCF7; 5.91 µg/mL (≈ 11 µM) in the assay on A549; above 20 µg/mL with MDA-MB-231.
Take `CC1=C(CO)C(=O)O[C@@H]([C@@H](C)[C@H]2CC[C@H]3[C@@H]4C[C@H]5O[C@]56[C@@H](O)C=CC(=O)[C@]6(C)[C@H]4CC[C@]23C)C1` [WITHAFERIN A]: the IC50 in the assay on HepG2 was 0.06 µg/mL (≈ 0.127 µM); in assay [1] it was 0.06 µg/mL (≈ 0.127 µM); with MCF7 it was 0.05 µg/mL (≈ 0.106 µM); in the assay on A549 it was 0.02 µg/mL (≈ 0.0425 µM); in the assay on MDA-MB-231, 0.02 µg/mL (≈ 0.0425 µM); with MRC5, 0.07 µg/mL (≈ 0.149 µM).

A word on the IC50: it is the concentration at which inhibition is half-maximal. Low values mean inhibition by little substance, high ones a need for much substance.
